Experimental data reported in patent US20220017877A1, “BILIRUBIN OXIDASE ACTIVITY IMPROVING METHOD, AND BILIRUBIN OXIDASE PRODUCT” (OZEKI CORPORATION, priority 2018, published 2022).

Experiment: ABTS initial absorbance (A436) reduction rate (Test Example 3)
Format: physicochemical
Conditions: in one minute at 25° C.; 1 mM (single compound) or 0.011 g nitrogen element in 100 mL (composition); pH 8.5
Excerpt: In the present specification, the absorbance of a solution containing ABTS (ABTS solution), at a wavelength of 436 nm, is defined as an ABTS initial absorbance (A436). In the present specification, the ABTS initial absorbance (A436) reduction rate (%) of the activity improving agent is defined to be a reduction rate (%) of the absorbance of a mixed solution, which contains the above ABTS solution and the above activity improving agent, at a wavelength of 436 nm in one minute, with respect to the ABTS initial absorbance (A436) (100%). Note that the ABTS solution is a solution in which the concentration of ABTS is adjusted such that the absorbance (A436) at a wavelength of 436 nm is approximately 1.3 at an optical path length of 1.0 cm. The value “approximately 1.3” here is intended to mean a value in a range in which 1.3 is obtained by rounding the value to the first decimal place. Test Examples described later will explain specific methods for measuring the absorbance (A436) of the ABTS solution at a wavelength of 436 nm and the ABTS initial absorbance (A436) reduction rate (%) of the activity improving agent. ABTS is an abbreviation for 2,2′-azinobis(3-ethylbenzothiazoline-6-sulfonic acid).
In the present activity improving method, when the ABTS initial absorbance (A436) reduction rate (%) of the activity improving agent is measured, the concentration of the activity improving agent in the ABTS solution for measurement is set as follows: (a) the concentration is set to 1 mM, when the molecular weight of the activity improving agent is evident as in a case where the activity improving agent is made of a single compound; and (b) when the activity improving agent is a substance which is made of a composition having an inevident molecular weight, the content of nitrogen element is used as a reference and the concentration is set such that the content of nitrogen element derived from the activity improving agent is 0.011 g in 100 mL of the ABTS solution for measurement. Note that, in the above (b), the content of nitrogen element derived from the activity improving agent in the ABTS solution is a value calculated by the Kjeldahl method.
The following describes a specific evaluation method. ABTS employed was an ABTS manufactured by Roche Diagnostics K.K. Further, the ABTS was dissolved in a 50 mM glycine-KOH (pH 8.5) buffer so that the concentration of the ABTS became 2.0 mg/mL. An ABTS solution was thus prepared. The absorbance of the ABTS solution at a wavelength of 436 nm (ABTS initial absorbance (A436)) was measured at an optical path length of 1.0 cm, by using a molecular absorption spectrometer Spectra Max Plus 384 (manufactured by Molecular Devices Japan K.K.). As a result the absorbance was approximately 1.3. Next, 5 μL of an activity improving agent solution or a comparative substance solution was added to 195 μL of the ABTS solution, so that a reaction solution for evaluating ABTS (hereinafter, also referred to as “reaction solution A”) was prepared. […]

Structure (SMILES): O=C1O[C@H]([C@@H](O)CO)C(O)=C1O [L-ascorbic acid]
- A436 reduction rate (%): 87.81%

Structure (SMILES): O=c1[nH]c(=O)c2[nH]c(=O)[nH]c2[nH]1 [Uric acid, uric acid]
- A436 reduction rate (%): 71.49%
